Measured values taken from the NIST ThermoML archive (doi:10.1016/j.fluid.2017.03.010).
Numbers after ± are expanded uncertainties.

Conditions: Liquid

| Normal boiling temperature (othmer still) [°C] | Normal boiling temperature (Othmer still) [°C] | Compound |
| --- | --- | --- |
| 78.30 ± 1.6 | – | CCO [ethanol] |
| – | 100.00 ± 1.6 | O [water] |
